{"source": "patent US20100254946A1", "about": "“MAINTENANCE OF HAIR GROWTH AND TREATMENT OF HAIR-LOSS” (LIFE & BRAIN GMBH, priority 2007, published 2010)", "origin": "cited, not measured here", "key": {"[1]": {"biological_target": "T1, P2Y5 mutant p.Lys125AsnfsX37 (Homo sapiens, UniProt P43657)", "T1 construct": "premature termination of translation of the P2Y5 receptor protein (p.Lys125AsnfsX37; expressed in transfected cells; vector pcDNA5/FRT/V5-His), transiently transfected with pCRE-luc", "T1 sequence (P43657 with tags, fused parts or gaps)": "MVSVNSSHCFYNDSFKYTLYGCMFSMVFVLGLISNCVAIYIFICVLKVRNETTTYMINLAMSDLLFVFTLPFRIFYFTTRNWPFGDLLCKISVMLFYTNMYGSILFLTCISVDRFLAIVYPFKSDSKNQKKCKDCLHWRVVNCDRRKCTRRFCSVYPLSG", "details": "P2Y5 mutant p.Lys125AsnfsX37, LPA used as ligand"}, "hair growth": {"tested_on": "hair growth", "details": "mouse model, previously shown"}, "P2Y5 receptor": {"biological_target": "T2, P2Y5 receptor (Homo sapiens, UniProt P43657)", "T2 sequence (P43657 1-344)": "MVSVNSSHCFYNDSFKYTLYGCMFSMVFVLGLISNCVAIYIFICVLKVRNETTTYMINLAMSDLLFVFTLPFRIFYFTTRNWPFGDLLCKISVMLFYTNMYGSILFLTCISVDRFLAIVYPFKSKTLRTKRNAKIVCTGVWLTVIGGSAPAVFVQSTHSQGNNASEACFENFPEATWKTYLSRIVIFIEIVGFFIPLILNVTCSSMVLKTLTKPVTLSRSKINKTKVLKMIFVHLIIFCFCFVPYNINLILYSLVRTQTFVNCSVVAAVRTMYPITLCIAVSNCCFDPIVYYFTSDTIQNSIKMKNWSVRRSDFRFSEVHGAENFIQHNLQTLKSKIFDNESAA"}}, "note": "“Also recorded” adds a separate entry of the source.", "data": [{"smiles": "CCCCCCCC/C=C\\CCCCCCCC(=O)OC[C@@H](O)COP(=O)(O)O", "note": "[LPA, oleoyl-L-alpha-lysophosphatidic acid]", "values": [{"measurement": "activation of a CRE luciferase reporter gene", "setting": "[1]", "result": "not capable of activating a CRE luciferase reporter gene"}, {"measurement": "stimulation of hair growth", "setting": "hair growth", "result": "stimulate hair growth in vivo"}, {"measurement": "ligand for the P2Y5 receptor", "setting": "P2Y5 receptor", "result": "is a ligand of the P2Y5 receptor; also recorded: is a ligand for the P2Y5 receptor"}]}]}
